Laboratory results as given in patent publication US9771327B2, “Compounds and methods for the treatment of cystic fibrosis” (FLATLEY DISCOVERY LAB, LLC, priority 2013, dated 2017).

Molecular target: T1, human ΔF508-CFTR (Homo sapiens, UniProt P13569, DEL508-508)
T1 construct: expressed in transfected cells
Assay: CFTR-YFP high throughput assay, CFTR corrector protocol (YFP iodide flux quench)
Type: cell-based
Conditions: FRT cells expressing human ΔF508-CFTR and YFP-H148Q/I152L, 24-26 h incubation with compound; for Emax: normalized to the positive control, read-out: EMAX (% Efficacy, EMAX normalized to the positive control); for EC50: stimulated with 20 μM Forskolin & 30 μM P3
Method: Assays for Detecting and Measuring the Effect of Compounds on dF508-CFTR Channels CFRT-YFP High Throughput Assay-CFTR Corrector Protocol:
This protocol is designed to selectively screen small molecule compounds for F508del CFTR corrector activities in the HTS YFP flux assay. In this protocol, the cells are incubated with testing compounds for 24 hours, washed with PBS, stimulated with forskolin and a standard potentiator, and read on a 384-well HTS plate reader, such as the Hamamatsu FDDD-6000.
YFP fluorescence intensity is acquired at high speed before and after iodide buffer is injected to the assay cells. Iodide enters the cells via active CFTR channels in the plasma membrane, and quenches the YFP fluorescence. The rate of fluorescence quenching is proportionally related to the total CFTR activities in the cell membrane. dF508-CFTR corrector accelerates YFP quenching by increasing the number of CFTR molecules in the testing cell plasma membrane.
This method was initially developed for bench top plate readers (Galietta et al., 2001), and was adapted to the HTS format (Sui et al. Assay Drug Dev. Technol. 2010).
Fisher Rat Thyroid (FRT) cells stably expressing both human ΔF508-CFTR and a halide-sensitive yellow fluorescent protein (YFP-H148Q/I152L 25,22) (Galietta et al., Am. J. Physiol Cell Physiol, 281(5), C1734, 2001) were cultured on plastic surface in Coon's modified Ham's F12 medium supplemented with FBS 10%, L-glutamine 2 mM, penicillin 100 U/ml, and streptomycin 100 μg/ml. G418 (0.75-1.0 mg/ml) and zeocin (3.2 ug/ml) were used for selection of FRT cells expressing ΔF508-CFTR and YFP. For primary screening, FRT cells were plated into 384-well black wall, transparent bottom microtiter plates (Costar; Corning Inc.) at a cell density of 20,000-40,000 per well. Test compound was applied to the cells at varying concentrations ranging from 2 nM-[…] in either a 2-fold or 3-fold dilution series. Cells were incubated in a cell culture incubator at 37° C. with 5% CO2 for 24-26 h. Assay plates were washed with DPBS media (Thermo, cat #SH30028.02) to remove unbound cells and compound. Stimulation media (25 μL) containing 20 μM Forskolin & 30 μM P3 [6-(Ethyl-phenyl-sulfonyl)-4-oxo-1,4-dihydro-quinoline-3-carboxylic acid 2-methoxy-benzylamide] in Hams F-12 coon's modified media was added to the plate wells and incubated at room temperature for 60-120 min. 25 μL of HEPES-PBS -I buffer (10 mM HEPES, 1 mM MgCl2, 3 mM KCl, 1 mM CaCl2, 150 mM NaI) was then added and fluorescence quench curves (Excitation 500 nm/Emission 540 nm; exposure 136 ms) were immediately recorded on an FDSS-6000 plate reader (Hamamatsu). Quench rates were derived from least squares fitting of the data as described by Sui et al. (2010).

T1 sequence (P13569 with tags, fused parts or gaps DEL508-508): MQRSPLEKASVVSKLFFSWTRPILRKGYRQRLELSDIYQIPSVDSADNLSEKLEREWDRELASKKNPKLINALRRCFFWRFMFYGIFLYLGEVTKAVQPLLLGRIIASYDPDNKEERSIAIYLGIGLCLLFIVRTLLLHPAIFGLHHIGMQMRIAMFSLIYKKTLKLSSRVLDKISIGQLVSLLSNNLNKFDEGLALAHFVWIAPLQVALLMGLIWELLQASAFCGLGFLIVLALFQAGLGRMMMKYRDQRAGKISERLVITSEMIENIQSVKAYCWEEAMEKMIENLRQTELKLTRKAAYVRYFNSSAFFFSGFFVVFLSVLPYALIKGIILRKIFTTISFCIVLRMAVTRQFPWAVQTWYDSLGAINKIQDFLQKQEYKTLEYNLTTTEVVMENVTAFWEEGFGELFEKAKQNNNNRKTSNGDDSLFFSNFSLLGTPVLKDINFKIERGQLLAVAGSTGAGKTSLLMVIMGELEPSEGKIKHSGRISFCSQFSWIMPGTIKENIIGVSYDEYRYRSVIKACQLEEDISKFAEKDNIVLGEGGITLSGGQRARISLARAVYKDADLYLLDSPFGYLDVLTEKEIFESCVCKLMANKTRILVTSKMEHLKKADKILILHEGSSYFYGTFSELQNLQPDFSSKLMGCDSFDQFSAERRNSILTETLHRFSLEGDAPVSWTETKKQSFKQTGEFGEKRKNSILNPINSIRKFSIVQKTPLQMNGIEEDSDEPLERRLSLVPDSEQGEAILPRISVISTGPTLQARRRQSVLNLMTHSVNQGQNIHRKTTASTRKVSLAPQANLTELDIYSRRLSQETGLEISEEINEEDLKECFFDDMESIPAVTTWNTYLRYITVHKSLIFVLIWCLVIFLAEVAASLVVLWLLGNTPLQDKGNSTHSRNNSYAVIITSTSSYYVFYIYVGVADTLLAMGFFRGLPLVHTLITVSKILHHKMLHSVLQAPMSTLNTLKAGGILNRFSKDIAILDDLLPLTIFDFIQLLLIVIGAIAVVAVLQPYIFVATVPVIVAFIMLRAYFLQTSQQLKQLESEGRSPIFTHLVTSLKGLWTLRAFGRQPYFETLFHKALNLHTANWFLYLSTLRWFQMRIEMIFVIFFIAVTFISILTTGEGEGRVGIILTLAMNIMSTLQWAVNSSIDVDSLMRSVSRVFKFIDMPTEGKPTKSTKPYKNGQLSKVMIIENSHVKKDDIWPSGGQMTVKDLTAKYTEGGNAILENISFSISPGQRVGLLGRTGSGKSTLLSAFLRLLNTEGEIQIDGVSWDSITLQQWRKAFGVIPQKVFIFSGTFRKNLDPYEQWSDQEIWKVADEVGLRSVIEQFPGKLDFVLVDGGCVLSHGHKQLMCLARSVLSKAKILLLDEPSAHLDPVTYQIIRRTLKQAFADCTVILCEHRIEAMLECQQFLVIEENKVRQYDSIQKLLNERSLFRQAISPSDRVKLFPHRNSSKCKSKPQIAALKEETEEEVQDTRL

COc1ccc(S(=O)(=O)N2CCC(n3c(-c4ccc(Cl)cc4Cl)nc4cccnc43)CC2)cc1Cl [Example 12, 3-(1-((3-Chloro-4-methoxyphenyl)sulfonyl)piperidin-4-yl)-2-(2,4-dichlorophenyl)-3H-imidazo[4,5-b]pyridine]
Emax: 10 to 30% | EC50: < 10 µM

COc1ccc(S(=O)(=O)N2CCC(n3c(-c4ccc(Cl)cc4)nc4cccnc43)CC2)cc1Cl [Example 29]
Emax: 10 to 30% | EC50: < 10 µM

CCc1ccc(S(=O)(=O)N2CCC(n3c(-c4ccccc4)nc4cccnc43)CC2)cc1 [Example 4, 3-(1-((4-Ethylphenyl)sulfonyl)piperidin-4-yl)-2-phenyl-3H-imidazo[4,5b]pyridine]
Emax: 30 to 80% | EC50: > 20 µM

COc1ccc(S(=O)(=O)N2CCC(n3c(C4CCCCC4)nc4cccnc43)CC2)cc1Cl [Example 31]
Emax: 30 to 80% | EC50: < 10 µM
